{
  "source": "patent US11970583B2",
  "about": "“Therapeutic dendrimer” (Starpharma Pty Ltd., priority 2018, dated 2024)",
  "key": {"[1]": {"settings": "2.5 mg/kg"}, "[2]": {"experiment": "Toxicology study in rats at 1 mg/kg (neutropenia)", "assay_type": "in vivo", "source_text": "References to amounts dosed in mg/kg for the dendrimeric compound are to the amounts of Cabazitaxel that may theoretically be released by the dendrimer."}, "DU145 tumour xenografts": {"system": "DU145 tumour xenografts", "experiment": "DU145 mouse xenograft prostate cancer model study", "assay_type": "in vivo, Male SCID mice", "description": "Cabazitaxel was prepared fresh for each dosing day. […] Dosing solutions at 4.5 and 5.5 mg/mL were prepared from this working stock immediately prior to injection.\nMale SCID mice (age 7-8) weeks were inoculated subcutaneously in the flank with 3×10^6 DU145 cells in PBS:Matrigel (1:1). Mice were weighed and tumours measured 2-3 times weekly using electronic callipers. […] Treatment groups were saline, Cabazitaxel (9 and 11 mg/kg), SPL-9048 (9 mg/kg) and SPL-9005 (25 mg/kg). […] The experiment was ended on Day 126, or earlier if an ethical endpoint was met. Survival curves were analysed using the Mantel Cox log rank test.\nTumour volumes were determined 2-3 times weekly and are expressed as mean tumour volume (±SEM).\nGraphs are shown for each group until fewer than 6 animals remained in each group."}, "[3]": {"system": "progressive metastatic disease", "experiment": "Phase 1 dose escalation study: treatment response and biomarkers", "assay_type": "in vivo, human patients", "description": "Biomarker, PK and other data were collected from patients enrolled in the study. Patients were dosed every 3 weeks, over 1 hour using an infusion pump. Patients all had progressive metastatic disease. The patient population was heavily pre-treated with a range of chemotherapeutic agents as described in the below table."}, "[4]": {"system": "CAPAN-1 tumour xenografts", "experiment": "CAPAN-1 mouse xenograft pancreatic cancer model study", "assay_type": "in vivo, Female NOD-SCID Interleukin-2 receptor gamma chain null mice", "description": "Gemcitabine and ABRAXANE® were obtained from the Peter MacCallum Cancer Centre pharmacy, and were dissolved in saline solution immediately prior to dosing.\nFemale NOD-SCID Interleukin-2 receptor gamma chain null mice (aged 9 weeks) were inoculated subcutaneously on the flank with 5×10^6 CAPAN-1 cells in PBS:Matrigel (1:1).\nTumour growth data was analysed in GraphPad Prism for ANOVA followed by Dunnett's post ad-hoc test."}, "[5]": {"experiment": "Stability in solution (precipitation)", "assay_type": "physicochemical", "settings": "compared with SPL9049"}, "[6]": {"system": "MDA-MB-231 tumour xenografts", "description": "Cabazitaxel was prepared fresh for each dosing day.\nTumour volumes were determined twice weekly and were expressed as mean tumour volume (±SEM).\nThe data represent the mean percent weight change from baseline (Day 1) for each group; bars SEM."}, "[7]": {"experiment": "Single-dose toxicokinetic study, intravenous bolus, free (unconjugated) cabazitaxel in plasma", "assay_type": "in vivo, Sprague Dawley Crl:CD (SD) rats", "settings": "males; for Cmax free (unconjugated) Cabazitaxel: i.v. bolus; for % JEVTANA ® brand cabazitaxel dose: relative to JEVTANA 2.5 mg/kg", "description": "A single-dose toxicokinetic study of SPL-9048 and SPL-9005 was carried out by intravenous bolus injection in rats with a 21-day observation period. The control, 0.9% sodium chloride, was prepared and dispensed on the day of dosing. SPL-9048 and SPL-9005 were prepared at appropriate concentrations to meet dose level requirements. The dosing formulations were prepared and dispensed on each day of dosing and were used within 3 hours of preparation. The required amount of test article was weighed out and dissolved in a suitable volume of normal saline with gentle swirling and the pH was recorded. Cabazitaxel (JEVTANA® brand cabazitaxel) was prepared at appropriate concentration to meet dose level requirements. […] This stock solution was further diluted with normal saline to produce the final dosing concentration within 30 minutes.\nThe animals used were male and female Sprague Dawley Crl:CD (SD) rats. The animals were 10 to 14 weeks old and weighed between 327 and 565 g for males and 212 and 316 g for females at initiation of dosing. Animals were acclimated to their designated housing for at least 4 days before the first day of dosing. Animals were assigned to groups by a stratified randomization scheme designed to achieve similar group mean body weights. Males and females were randomised separately. Animals in poor health or at extremes of body weight ranges were not assigned to groups. PMI Nutrition International Certified Rodent Chow No. 5CR4 was provided ad libitum throughout the study except during designated procedures. The same diet in meal form was also provided, as needed. Municipal tap water, after treatment by reverse osmosis and ultraviolet irradiation, was freely available to each animal via an automatic watering system, except during designated procedures. Water bottles were also provided, as required. Animal were socially housed for psychological/environmental enrichment and were provided with items such as a chewing object, except when interrupted by study procedures/activities. Veterinary care was available throughout the course of the study.\nThe test and control articles were administered to the appropriate animals at the amounts indicated in the table below via a single intravenous (slow bolus) injection to the tail vein.\nThe dose volume for each animal was based on the most recent body weight measurement. The animals were temporarily restrained for dose administration and were not sedated. The doses were given using a syringe with attached needle. The first day of dosing for each group was designated as Day 1. The comparator dosing formulation (JEVTANA® brand Cabazitaxel) and test articles were maintained between 15 and 30° C. during dosing.\nToxicokinetic parameters were estimated using Phoenix pharmacokinetic software. A non-compartmental approach consistent with the intravenous route of administration was used for parameter estimation."}},
  "note": "“Also recorded” adds a separate entry of the source.",
  "data": [
    {"substance": "BHALys[Lys]32[α-DGA-Cabazitaxel]32†[ε-PEG˜2100]32‡ [SPL9048]", "values": [
      {"measurement": "toxicity overall", "setting": "[1]", "value": "Reduced toxicity"},
      {"measurement": "rebound after neutropenia at day 14", "setting": "[2]", "value": "virtually no rebound"},
      {"measurement": "neutropenia (FIG. 6), day 7 in particular", "setting": "[2]; male and female rats", "value": "lesser/no dip in values"},
      {"measurement": "antitumour efficacy (mean tumour volume, FIG. 1)", "setting": "DU145 tumour xenografts; 9 mg/kg i.v. Days 1, 8 and 15, to Day 126", "value": "complete tumour regression with no regrowth observed in any of the animals on Day 126"},
      {"measurement": "tolerability (body weight, FIG. 2)", "setting": "DU145 tumour xenografts; male mice, 9 mg/kg i.v. Days 1, 8, 15, 9 mg/kg", "value": "overall well tolerated; also recorded: better tolerated than SPL9005"},
      {"measurement": "max weight loss", "setting": "DU145 tumour xenografts; male mice, 9 mg/kg, on Day 20", "value": "−10", "unit": "%"},
      {"measurement": "dose at which biomarker response occurs", "setting": "[3]; FIGS. 8 and 9", "value": "≥ 10", "unit": "mg/m^2"},
      {"measurement": "CA-125 (FIG. 9)", "setting": "[3]; ovarian cancer, after two doses at 15 mg/m^2", "value": "declining"},
      {"measurement": "Stable disease", "setting": "[3]; patient: digital papillary adenocarcinoma (stage IV), 2 to 15 mg/m^2, 12 cycles", "value": "Stable disease > 33 weeks."},
      {"measurement": "CA-125 decline", "setting": "[3]; patient: ovarian (stage IV), 15 to 20 mg/m^2, 7 cycles, over 15 weeks", "value": "CA-125 declining (60%) from 652"},
      {"measurement": "CA-125 after decline", "setting": "[3]; patient: ovarian (stage IV), from 652, over 15 weeks, after one cycle at 15 mg/m^2", "value": "to 255 kU/L (over 15 weeks) after"},
      {"measurement": "CA 19-9 decline", "setting": "[3]; patient: pancreatic adenocarcinoma (stage IV), 20 mg/m^2, 3 cycles, after one cycle", "value": "CA 19-9 declining (28%) from 177"},
      {"measurement": "CA 19-9 after decline", "setting": "[3]; patient: pancreatic adenocarcinoma (stage IV), 20 mg/m^2, from 177 baseline, after one cycle", "value": "baseline to 127 kU/L after one"},
      {"measurement": "CA 19-9", "setting": "[3]; patient: pancreatic adenocarcinoma, 20 mg/m^2, 1 cycle", "value": "Stable CA 19-9, abdominal pain"},
      {"measurement": "abdominal pain and opioid treatment", "setting": "[3]; patient: pancreatic adenocarcinoma, 20 mg/m^2, after one cycle", "value": "subsided and cessation of opioid"},
      {"measurement": "Stable disease", "setting": "[3]; patient: prostate (stage III), 5 to 20 mg/m^2, 13 cycles", "value": "Stable disease > 35 weeks."},
      {"measurement": "PSA after decline", "setting": "[3]; patient: prostate (stage III), 5 to 20 mg/m^2, declined from 106 over 12 weeks", "value": "PSA declined from 106 to 25 μg/L"},
      {"measurement": "Stable disease", "setting": "[3]; patient: prostate, 20 mg/m^2, 5 cycles", "value": "Stable disease > 6 weeks"},
      {"measurement": "PSA after decline", "setting": "[3]; patient: prostate, 20 mg/m^2, 5 cycles, from 262, in 3 weeks after three cycles", "value": "86 μg/L (in 3 weeks) after three"},
      {"measurement": "PSA stability", "setting": "[3]; patient: prostate, 5 cycles, at 5 mg/m^2", "value": "Preliminary signs of PSA stability"},
      {"measurement": "PSA (FIG. 8)", "setting": "[3]; prostate cancer patients, multiple doses at 10 mg/m^2, continuing at 20 mg/m^2", "value": "declining"},
      {"measurement": "Tumour Growth inhibition (%)", "setting": "[4]; Day 37, dosing days 1, 8, 15, Gemcitabine 80 mg/kg i.p., ABRAXANE 40 mg/kg i.v., SPL9048 […] i.v.", "value": 107, "unit": "%"},
      {"measurement": "tumour growth inhibition compared with ABRAXANE", "setting": "[4]; […] i.v. vs 40 mg/kg i.v.", "value": "more effectively than ABRAXANE®"},
      {"measurement": "anti-tumour efficacy (mean tumour volume, FIG. 7)", "setting": "[4]; dosing days 1, 8, 15, study to day 107", "value": "complete regression of CAPAN-1 tumours for the duration of the study"},
      {"measurement": "stability in solution (e.g. with regard to precipitation)", "setting": "[5]", "value": "increased stability in solution"},
      {"measurement": "tolerability (body weight, FIG. 4)", "setting": "[6]; 9 and 10 mg/kg", "value": "overall well tolerated"},
      {"measurement": "antitumour efficacy (mean tumour volume, FIG. 3)", "setting": "[6]; 9 and 10 mg/kg i.v. days 1, 8 and 15", "value": "complete tumour regression"},
      {"measurement": "survival", "setting": "[6]; both doses (9 and 10 mg/kg)", "value": "significantly extended survival beyond that of Cabazitaxel"},
      {"measurement": "AUC0-t free Cabazitaxel", "setting": "[7]; 1 mg/kg drug eq.", "value": 445.00, "unit": "ng·h/mL"},
      {"measurement": "Cmax free (unconjugated) Cabazitaxel", "setting": "[7]; 1 mg/kg drug eq.", "value": 14.13, "unit": "ng/mL"},
      {"measurement": "% JEVTANA ® brand cabazitaxel dose", "setting": "[7]; 1 mg/kg drug eq.", "value": 65, "unit": "%"},
      {"measurement": "AUC0-t free Cabazitaxel", "setting": "[7]; 2.5 mg/kg drug eq.", "value": 1239.99, "unit": "ng·h/mL"},
      {"measurement": "Cmax free (unconjugated) Cabazitaxel", "setting": "[7]; 2.5 mg/kg drug eq.", "value": 36.89, "unit": "ng/mL"},
      {"measurement": "% JEVTANA ® brand cabazitaxel dose", "setting": "[7]; 2.5 mg/kg drug eq.", "value": 182, "unit": "%"}
    ]}
  ]
}
